Results taken from patent US20230085307A1, “PYRIDAZINONE COMPOUND AND HERBICIDE” (NISSAN CHEMICAL CORPORATION, priority 2019, published 2023).

What was measured:
windgrass [1] = experiment: Test Example 5: herbicidal effect by foliage application, plastic box (Table 20, symbol L); format: in vivo, windgrass (Apera spica-venti)
Summary of the method: (§1)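 Foliar spray test: emulsion formulation diluted in water to a set application rate, sprayed onto 14-day-old plants raised in diluvial soil at 25° C to 30° C under glass. Both herbicidal effect and crop effect rated visually three weeks later.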

oval-leafed pondweed = experiment: Test Example 2: herbicidal activity, application during weed generation under submerged conditions (Table 17, symbol C); format: in vivo, oval-leafed pondweed (Monochoria vaginalis); settings: application during weed generation, submerged conditions
Summary of the method: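 Steps: fill Wagner pots with alluvial soil; add water to give 4 cm depth; sow the species mixed; grow under glass at 25–30° C.; at 1–2 leaves apply water-diluted emulsion formulation to the water surface at a fixed herbicide amount; score after 3 weeks.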

lambsquarters = experiment: Test Example 4: herbicidal effect by soil treatment (Table 19, symbol O); format: in vivo, lambsquarters (Chenopodium album)
Summary of the method: (§2)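 Herbicidal effect was rated 3 weeks after treatment, using the scoring criteria of an earlier test. The compound, formulated as an emulsion and diluted in water to a set herbicide amount, had been sprayed uniformly on soil over freshly sown seeds. Growth took place in a greenhouse at 25° C. to 30° C.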

velvetleaf [2] = experiment: Test Example 4: herbicidal effect by soil treatment (Table 19, symbol M); format: in vivo, velvetleaf (Abutilon theophrasti)
Summary of the method: as §2

false cleavers = experiment: Test Example 4: herbicidal effect by soil treatment (Table 19, symbol Q); format: in vivo, false cleavers (Galium spurium)
Summary of the method: as §2

chickweed = experiment: Test Example 5: herbicidal effect by foliage application, plastic box (Table 20, symbol P); format: in vivo, common chickweed (Stellaria media); settings: for P: chickweed, herbicidal effect grade: foliage application, three weeks after application
Summary of the method: as §1

barnyard grass = experiment: Test Example 5: herbicidal effect by foliage application, plastic box (Table 20, symbol H); format: in vivo, barnyard grass (Echinochloa crus-galli)
Summary of the method: as §1

late watergrass = experiment: Test Example 1: herbicidal activity, application before weed generation under submerged conditions (Table 16, symbol A); format: in vivo, late watergrass (Echinochloa oryzicola)
Summary of the method: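 Alluvial soil was flooded to 4 cm depth, weed seeds were sown mixed and 2.5-leaf rice seedlings were transplanted. On sowing day, the compound's emulsion, diluted in water to a set dose, was applied to the water surface. Plants grew at 25–30 °C and were scored 0–5 after three weeks.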

Italian ryegrass [3] = experiment: Test Example 4: herbicidal effect by soil treatment (Table 19, symbol K); format: in vivo, Italian ryegrass (Lolium multiflorum)
Summary of the method: as §2

Chinese sprangletop = experiment: Test Example 3: herbicidal effect by foliage application, Wagner pot (Table 18, symbol D); format: in vivo, chinese sprangletop (Leptochloa chinensis)
Summary of the method: (§3)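 Plants were sown in alluvial soil held under 0.1–0.5 cm standing water and grown 14 days in a greenhouse at 25–30 °C. An emulsifiable formulation, water-diluted to the set dose, was then sprayed onto the foliage, and effects were scored three weeks later using previously defined criteria.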

Italian ryegrass [4] = experiment: Test Example 5: herbicidal effect by foliage application, plastic box (Table 20, symbol K); format: in vivo, Italian ryegrass (Lolium multiflorum)
Summary of the method: as §1

persian speedwell = experiment: Test Example 4: herbicidal effect by soil treatment (Table 19, symbol R); format: in vivo, Persian speedwell (Veronica persica)
Summary of the method: as §2

wild oat = experiment: Test Example 4: herbicidal effect by soil treatment (Table 19, symbol I); format: in vivo, wild oat (Avena fatua)
Summary of the method: as §2

rice flat sedge = experiment: Test Example 3: herbicidal effect by foliage application, Wagner pot (Table 18, symbol E); format: in vivo, rice flat sedge (Cyperus iria)
Summary of the method: as §3

velvetleaf [5] = experiment: Test Example 5: herbicidal effect by foliage application, plastic box (Table 20, symbol M); format: in vivo, velvetleaf (Abutilon theophrasti)
Summary of the method: as §1

green foxtail = experiment: Test Example 4: herbicidal effect by soil treatment (Table 19, symbol G); format: in vivo, green foxtail (Setaria viridis); settings: amount of applied herbicide 320 g/ha
Summary of the method: as §2

windgrass [6] = experiment: Test Example 4: herbicidal effect by soil treatment (Table 19, symbol L); format: in vivo, windgrass (Apera spica-venti); settings: amount of applied herbicide 320 g/ha
Summary of the method: as §2

[7] = foliage application, 296 g/ha, three weeks after application
[8] = amount of applied herbicide 296 g/ha
[9] = foliage application, 320 g/ha, three weeks after application
[10] = amount of applied herbicide 320 g/ha
[11] = amount of applied herbicide 320 g/ha, foliage application after 14-day growth, evaluated three weeks after application

SMILES: CCCC(=O)Oc1c(C)nn(C)c(=O)c1-c1c(-c2ccccc2OC)sc2cc(OC)ccc12 [Compound No. 3-066, 5-(6-methoxy-2-(2-methoxyphenyl)benzo[b]thiophen-3-yl)-1,3-dimethyl-6-oxo-1,6-dihydropyridazin-4-yl=(n-butyrate)]
- L: windgrass, herbicidal effect grade (windgrass [1]; [7]): 5 (Herbicidal rate of 90% or more (almost completely withered))
- herbicidal effect rating, C: oval-leafed pondweed (oval-leafed pondweed; AAH 296 g/ha): 5 (Herbicidal rate of 90% or more (almost completely withered))
- O: lambsquarters, herbicidal effect grade (lambsquarters; [8]): 0 (Herbicidal rate of 5% or less (almost no effect))
- M: velvetleaf, herbicidal effect grade (velvetleaf [2]; [8]): 0 (Herbicidal rate of 5% or less (almost no effect))
- Q: false cleavers, herbicidal effect grade (false cleavers; [8]): 2 (Herbicidal rate of 20% or more and less than 40%)
- P: chickweed, herbicidal effect grade (chickweed; 296 g/ha): 5 (Herbicidal rate of 90% or more (almost completely withered))
- H: barnyard grass, herbicidal effect grade (barnyard grass; [7]): 4 (Herbicidal rate of 70% or more and less than 90%)
- Herbicidal effect, A: late watergrass (late watergrass; [8]): 5 (Herbicidal rate of 90% or more (almost completely withered))
- K: Italian ryegrass, herbicidal effect grade (Italian ryegrass [3]; [8]): 4 (Herbicidal rate of 70% or more and less than 90%)
- herbicidal effect on Chinese sprangletop (D) (Chinese sprangletop; 296 g/ha): 1 (Herbicidal rate of 5% or more and less than 20%)
- K: Italian ryegrass, herbicidal effect grade (Italian ryegrass [4]; [7]): 4 (Herbicidal rate of 70% or more and less than 90%)
- R: persian speedwell, herbicidal effect grade (persian speedwell; [8]): 3 (Herbicidal rate of 40% or more and less than 70%)
- I: wild oat, herbicidal effect grade (wild oat; [8]): 2 (Herbicidal rate of 20% or more and less than 40%)
- herbicidal effect on rice flat sedge (E) (rice flat sedge; 296 g/ha): 5 (Herbicidal rate of 90% or more (almost completely withered))
- M: velvetleaf, herbicidal effect grade (velvetleaf [5]; [7]): 4 (Herbicidal rate of 70% or more and less than 90%)

SMILES: Cc1nn(C)c(=O)c(-c2c(-c3ccc(OC(C)C)cc3)oc3ccc(F)cc23)c1O [9-025]
- herbicidal effect on windgrass (L) (windgrass [1]; [9]): 0 (Herbicidal rate of 5% or less (almost no effect))
- herbicidal effect rating, C: oval-leafed pondweed (oval-leafed pondweed; AAH 320 g/ha): 4 (Herbicidal rate of 70% or more and less than 90%)
- O: lambsquarters, herbicidal effect grade (lambsquarters; [10]): 4 (Herbicidal rate of 70% or more and less than 90%)
- M: velvetleaf, herbicidal effect grade (velvetleaf [2]; [10]): 3 (Herbicidal rate of 40% or more and less than 70%)
- Q: false cleavers, herbicidal effect grade (false cleavers; [10]): 0 (Herbicidal rate of 5% or less (almost no effect))
- herbicidal effect on barnyard grass (H) (barnyard grass; [9]): 4 (Herbicidal rate of 70% or more and less than 90%)
- G: green foxtail, herbicidal effect grade (green foxtail): 5 (Herbicidal rate of 90% or more (almost completely withered))
- Herbicidal effect, A: late watergrass (late watergrass; [10]): 5 (Herbicidal rate of 90% or more (almost completely withered))
- K: Italian ryegrass, herbicidal effect grade (Italian ryegrass [3]; [10]): 5 (Herbicidal rate of 90% or more (almost completely withered))
- Herbicidal effect on D (Chinese sprangletop), foliage application (Chinese sprangletop; [10]): 2 (Herbicidal rate of 20% or more and less than 40%)
- herbicidal effect on Italian ryegrass (K) (Italian ryegrass [4]; [9]): 5 (Herbicidal rate of 90% or more (almost completely withered))
- R: persian speedwell, herbicidal effect grade (persian speedwell; [10]): 4 (Herbicidal rate of 70% or more and less than 90%)
- I: wild oat, herbicidal effect grade (wild oat; [10]): 0 (Herbicidal rate of 5% or less (almost no effect))
- Herbicidal effect on E (rice flat sedge), foliage application (rice flat sedge; [10]): 5 (Herbicidal rate of 90% or more (almost completely withered))
- herbicidal effect on velvetleaf (M) (velvetleaf [5]; [9]): 5 (Herbicidal rate of 90% or more (almost completely withered))

SMILES: CCCC(=O)Oc1c(C)nn(C)c(=O)c1-c1c(-c2ccc(C#N)cc2)sc2cc(F)c(F)cc12 [5-026]
- Herbicidal effect by foliage application, L: windgrass (windgrass [1]; [11]): 0 (Herbicidal rate of 5% or less (almost no effect))
- herbicidal effect rating, C: oval-leafed pondweed (oval-leafed pondweed; AAH 320 g/ha): 0 (Herbicidal rate of 5% or less (almost no effect))
- O: lambsquarters, herbicidal effect grade (lambsquarters; [10]): 4 (Herbicidal rate of 70% or more and less than 90%)
- M: velvetleaf, herbicidal effect grade (velvetleaf [2]; [10]): 0 (Herbicidal rate of 5% or less (almost no effect))
- Herbicidal effect by foliage application, P: chickweed (chickweed; [11]): 5 (Herbicidal rate of 90% or more (almost completely withered))
- Herbicidal effect by foliage application, H: barnyard grass (barnyard grass; [11]): 0 (Herbicidal rate of 5% or less (almost no effect))
- G: green foxtail, herbicidal effect grade (green foxtail): 0 (Herbicidal rate of 5% or less (almost no effect))
- L: windgrass, herbicidal effect grade (windgrass [6]): 0 (Herbicidal rate of 5% or less (almost no effect))
- Herbicidal effect, A: late watergrass (late watergrass; [10]): 3 (Herbicidal rate of 40% or more and less than 70%)
- K: Italian ryegrass, herbicidal effect grade (Italian ryegrass [3]; [10]): 0 (Herbicidal rate of 5% or less (almost no effect))
- herbicidal effect on Chinese sprangletop (D) (Chinese sprangletop; 320 g/ha): 4 (Herbicidal rate of 70% or more and less than 90%)
- Herbicidal effect by foliage application, K: Italian ryegrass (Italian ryegrass [4]; [11]): 0 (Herbicidal rate of 5% or less (almost no effect))
- R: persian speedwell, herbicidal effect grade (persian speedwell; [10]): 4 (Herbicidal rate of 70% or more and less than 90%)
- I: wild oat, herbicidal effect grade (wild oat; [10]): 0 (Herbicidal rate of 5% or less (almost no effect))
- herbicidal effect on rice flat sedge (E) (rice flat sedge; 320 g/ha): 5 (Herbicidal rate of 90% or more (almost completely withered))
- Herbicidal effect by foliage application, M: velvetleaf (velvetleaf [5]; [11]): 3 (Herbicidal rate of 40% or more and less than 70%)

SMILES: COc1ccccc1-c1sc2cc(OC(F)F)ccc2c1-c1c(O)c(C)nn(C)c1=O [3-113]
- L: windgrass, herbicidal effect grade (windgrass [1]; [9]): 5 (Herbicidal rate of 90% or more (almost completely withered))
- herbicidal effect rating, C: oval-leafed pondweed (oval-leafed pondweed; AAH 320 g/ha): 0 (Herbicidal rate of 5% or less (almost no effect))
- O: lambsquarters, herbicidal effect grade (lambsquarters; [10]): 5 (Herbicidal rate of 90% or more (almost completely withered))
- M: velvetleaf, herbicidal effect grade (velvetleaf [2]; [10]): 4 (Herbicidal rate of 70% or more and less than 90%)
- P: chickweed, herbicidal effect grade (chickweed; 320 g/ha): 5 (Herbicidal rate of 90% or more (almost completely withered))
- H: barnyard grass, herbicidal effect grade (barnyard grass; [9]): 5 (Herbicidal rate of 90% or more (almost completely withered))
- G: green foxtail, herbicidal effect grade (green foxtail): 5 (Herbicidal rate of 90% or more (almost completely withered))
- L: windgrass, herbicidal effect grade (windgrass [6]): 5 (Herbicidal rate of 90% or more (almost completely withered))
- Herbicidal effect, A: late watergrass (late watergrass; [10]): 4 (Herbicidal rate of 70% or more and less than 90%)
- K: Italian ryegrass, herbicidal effect grade (Italian ryegrass [3]; [10]): 5 (Herbicidal rate of 90% or more (almost completely withered))
- herbicidal effect on Chinese sprangletop (D) (Chinese sprangletop; 320 g/ha): 3 (Herbicidal rate of 40% or more and less than 70%)
- K: Italian ryegrass, herbicidal effect grade (Italian ryegrass [4]; [9]): 5 (Herbicidal rate of 90% or more (almost completely withered))
- R: persian speedwell, herbicidal effect grade (persian speedwell; [10]): 5 (Herbicidal rate of 90% or more (almost completely withered))
- I: wild oat, herbicidal effect grade (wild oat; [10]): 0 (Herbicidal rate of 5% or less (almost no effect))
- herbicidal effect on rice flat sedge (E) (rice flat sedge; 320 g/ha): 5 (Herbicidal rate of 90% or more (almost completely withered))
- M: velvetleaf, herbicidal effect grade (velvetleaf [5]; [9]): 5 (Herbicidal rate of 90% or more (almost completely withered))
